Assay results: US20250163050A1, “CRYSTALLINE (+)-TETRABENAZINE” (Foresee Pharmaceuticals Co., Ltd., priority 2022, published 2025)
Converted amounts (≈) assume the structure as drawn. Read-outs that look alike come from different tables or passages of the source.

Assays:
[1] = Powder flow property, angle of repose (USP 1174); assay type: physicochemical
Text: The present application enables the production of crystalline (+)-TBZ in various particle size ranges and crystal morphology (e.g. rod-shaped crystals and more symmetric crystals). As API powder/crystalline flowability can be critical in the manufacture of a drug product, flow property of crystalline (+)-TBZ in the present application was investigated.

[2] = Solubility in PBS with 0.2% (w/v) tween 20 at 37° C.; assay type: physicochemical; details: for solubility: PBS with 0.2% (w/v) tween 20, 37° C., overnight
Method: 20 mg Form 2 crystalline (+)-TBZ was dispersed into 1 ml PBS with 0.2% (w/v) tween 20. Then, this excessively saturated suspension was stirred overnight at 37° C. 0.8 ml of former suspension was transferred into 1.5 mL Eppendorf centrifuge tube. The undissolved solid was spun down using bench-top centrifuge at the rotation of 14000 rpm for 5 min.
• Flow rate: 0.3 mL/min • Column temp: 55° C. • Injection volume: 2 uL • Detection: 220 nm • Run time: 10 min • (+)-TBZ retention time: ˜3.5 min

[3] = Metabolism in rat liver microsome (RLM); assay type: in vitro ADME
Method: Rat liver microsome (RLM) study was conducted to investigate the generation of pharmaceutically active metabolites of Form 2 (+)-TBZ and TBZ racemate.

[4] = in vivo; cited from earlier work
[5] = patients, dose escalation; cited from earlier work
[6] = compared with TBZ; cited from earlier work
[7] = tested on: dopamine receptors; details: cited from earlier work

COc1cc2c(cc1OC)[C@H]1CC(=O)[C@H](CC(C)C)CN1CC2 [Form 2 crystalline (+)-TBZ, (3R,11bR)-tetrabenazine]
Response Angle ([1]; D50 15 μm): 45.3 ± 5.0 ° | Response Angle ([1]; D50 35 μm): 43.3 ± 2.5 ° | Response Angle ([1]; D50 50 μm): 36.7 ± 7.6 ° | Response Angle ([1]; D50 80 μm, more symmetric crystals): 34.7 ± 1.2 ° | Response Angle ([1]; D50 80 μm, more symmetric crystals, listed as more symmetric crystalline (+)-TBZ): about 35 ° | Response Angle ([1]; D50 125 μm): 35.3 ± 2.3 ° | Response Angle ([1]; Rod shape (80 μm)): 64.3 ± 1.2 ° | Response Angle ([1]; Rod shape (80 μm), listed as rod-shaped crystalline (+)-TBZ): about 64 ° | solubility [2]: 61.032 µg/mL (≈ 192 µM) | (+)-DHTBZ concentration in RLM ([3]; 0 min): 0 ng/mL | (+)-TBZ concentration in RLM ([3]; 0 min): 2056 ng/mL | (−)-DHTBZ concentration in RLM ([3]; 0 min): 0 ng/mL | (−)-TBZ concentration in RLM ([3]; 0 min): 0 ng/mL | (+)-DHTBZ concentration in RLM ([3]; 15 min): 455 ng/mL | (+)-TBZ concentration in RLM ([3]; 15 min): 881 ng/mL | (−)-DHTBZ concentration in RLM ([3]; 15 min): 0 ng/mL | (−)-TBZ concentration in RLM ([3]; 15 min): 0 ng/mL | (+)-DHTBZ concentration in RLM ([3]; 30 min): 608 ng/mL | (+)-TBZ concentration in RLM ([3]; 30 min): 366 ng/mL | (−)-DHTBZ concentration in RLM ([3]; 30 min): 0 ng/mL | (−)-TBZ concentration in RLM ([3]; 30 min): 0 ng/mL | (+)-DHTBZ concentration in RLM ([3]; 45 min): 616 ng/mL | (+)-TBZ concentration in RLM ([3]; 45 min): 122 ng/mL | (−)-DHTBZ concentration in RLM ([3]; 45 min): 0 ng/mL | (−)-TBZ concentration in RLM ([3]; 45 min): 0 ng/mL | (+)-DHTBZ concentration in RLM ([3]; 60 min): 627 ng/mL | (+)-TBZ concentration in RLM ([3]; 60 min): 42 ng/mL | (−)-DHTBZ concentration in RLM ([3]; 60 min): 0 ng/mL | (−)-TBZ concentration in RLM ([3]; 60 min): 0 ng/mL | amounts of therapeutically active VMAT2 inhibitors, (+)-TBZ and (+)-DHTBZ, generated in RLM versus racemate TBZ ([3]; rat liver microsome): comparable amounts | half-life ([3]; rat liver microsome): 10.6 min

COc1cc2c(cc1OC)C1CC(=O)C(CC(C)C)CN1CC2 (racemic) [TBZ racemate, 1,3,4,6,7,11b-hexahydro-9,10-dimethoxy-3-(2-methylpropyl)-2H-benzo[a]quinolizin-2-one]
less solubility compared to Form 2 crystalline (+)-TBZ ([2]; PBS with 0.2% w/v Tween 20): about 40% | solubility ([2]; aqueous with cosolvent or surfactant or cyclodextrin, thermodynamic from solid, read-out: Solubility): 36.4 µg/mL (≈ 115 µM) | bioavailability [4]: low and variable | half-life ([3]; liver microsomes, rat liver microsome, read-out: Half-life): 10.6 min | side-effect: akathisia [5]: 9.5% | side-effect: depression [5]: 15.0% | side-effect: drowsiness [5]: 36.5% | side-effect: insomnia [5]: 11.0% | side-effect: nervousness or anxiety [5]: 10.3% | side-effect: parkinsonism [5]: 28.5%

COc1cc2c(cc1OC)[C@H]1C[C@H](O)[C@H](CC(C)C)CN1CC2 [(2S,3R,11bR)-DHTBZ]
sedative effects [6]: lack the unwanted sedative effects | binding at dopamine receptors [7]: negligible binding

COc1cc2c(cc1OC)[C@H]1C[C@@H](O)[C@H](CC(C)C)CN1CC2 [(2R,3R,11bR)-DHTBZ]
sedative effects [6]: lack the unwanted sedative effects | binding at dopamine receptors [7]: negligible binding
